From ChEMBL document CHEMBL3885861, “Open TG-GATES”

Species on record: Rattus norvegicus
Assay: Open TG-GATES - Regimen: Daily Repeat
Assay type: toxicity, organism-based, Sprague-Dawley
Parameters: regimen Daily Repeat, gender Male, age 6 weeks
Conditions: in vivo, po, 300 mg/kg, route gavage, dose level Middle; for APTT / Bas / Eos / Fbg / Hb / Ht / Lym / MCH / MCHC / MCV / Mono / Neu / PT / Plat / RBC / Ret / WBC: tissue Blood
[1] = 72 h, tissue Kidney, time 3 day
[2] = 72 h, tissue Plasma, time 3 day

CCCCNC(=O)NS(=O)(=O)c1ccc(C)cc1 [TOLBUTAMIDE]
TERMINAL_BW (72 h, time 3 day): 233.2 g | APTT (72 h, time 3 day): 17 s | Bas (72 h, time 3 day): 0% | Eos (72 h, time 3 day): 1% | Fbg (72 h, time 3 day): 287.2 mg/dL | Hb (72 h, time 3 day): 13.7 g/dL | Ht (72 h, time 3 day): 41.8% | Lym (72 h, time 3 day): 80% | MCH (72 h, time 3 day): 20.8 pg | MCHC (72 h, time 3 day): 32.8% | MCV (72 h, time 3 day): 63.2 fL | Mono (72 h, time 3 day): 2.6% | Neu (72 h, time 3 day): 15.6% | PT (72 h, time 3 day): 13 s | Plat (72 h, time 3 day): 122.8 x10_4/uL | RBC (72 h, time 3 day): 661 x10_4/ul | Ret (72 h, time 3 day): 6.3% | WBC (72 h, time 3 day): 108 x10_2/uL | KIDNEY_L [1]: 1 g | KIDNEY_R [1]: 1 g | KIDNEY_TOTAL [1]: 2 g | LIVER (72 h, tissue Liver, time 3 day): 10.8 g | A/G [2]: 0.9 | ALP [2]: 1683.8 IU/L | ALT [2]: 49.4 IU/L | AST [2]: 70.2 IU/L | BUN [2]: 13.2 mg/dL | CRE [2]: 0.2 mg/dL | Ca [2]: 11.1 mg/dL | Cl [2]: 105 meq/L | DBIL [2]: 0.01 mg/dL | GLC [2]: 176.6 mg/dL | IP [2]: 8.2 mg/dL | K [2]: 4 meq/L | LDH [2]: 69.8 IU/L | Na [2]: 142.4 meq/L | PL [2]: 151 mg/dL | RALB [2]: 2.6 g/dL | TBIL [2]: 0.062 mg/dL | TC [2]: 79.2 mg/dL | TG [2]: 86.4 mg/dL | TP [2]: 5.5 g/dL | gamma-GTP [2]: 1 IU/L | TERMINAL_BW ([…], time 7 day): 265.6 g | TERMINAL_BW ([…], time 14 day): 327.4 g | TERMINAL_BW ([…], time 28 day): 387.4 g | APTT ([…], time 7 day): 17.8 s | Bas ([…], time 7 day): 0.4% | Eos ([…], time 7 day): 1% | Fbg ([…], time 7 day): 287 mg/dL | Hb ([…], time 7 day): 14 g/dL | Ht ([…], time 7 day): 42.1% | Lym ([…], time 7 day): 81.6% | MCH ([…], time 7 day): 20.9 pg | MCHC ([…], time 7 day): 33.3% | MCV ([…], time 7 day): 62.5 fL | Mono ([…], time 7 day): 2.2% | Neu ([…], time 7 day): 14.6% | PT ([…], time 7 day): 12.7 s | Plat ([…], time 7 day): 118.8 x10_4/uL | RBC ([…], time 7 day): 674.4 x10_4/ul | Ret ([…], time 7 day): 5.3% | WBC ([…], time 7 day): 114.8 x10_2/uL | APTT ([…], time 14 day): 18 s | Bas ([…], time 14 day): 0.4% | Eos ([…], time 14 day): 1% | Fbg ([…], time 14 day): 290.4 mg/dL | Hb ([…], time 14 day): 14.6 g/dL | Ht ([…], time 14 day): 44.4% | Lym ([…], time 14 day): 78.2% | MCH ([…], time 14 day): 19.6 pg | MCHC ([…], time 14 day): 32.8% | MCV ([…], time 14 day): 59.8 fL | Mono ([…], time 14 day): 1.8% | Neu ([…], time 14 day): 18.4% | PT ([…], time 14 day): 12.8 s | Plat ([…], time 14 day): 120.3 x10_4/uL | RBC ([…], time 14 day): 743.4 x10_4/ul | Ret ([…], time 14 day): 4.3% | WBC ([…], time 14 day): 98.4 x10_2/uL | APTT ([…], time 28 day): 20 s | Bas ([…], time 28 day): 0.6% | Eos ([…], time 28 day): 1% | Fbg ([…], time 28 day): 266.6 mg/dL | Hb ([…], time 28 day): 15.4 g/dL | Ht ([…], time 28 day): 45.4%
